What was measured:
[1] = cited from earlier work
TrxR1, Trx1 and Prdx2 = target: T1, TrxR1, Trx1 and Prdx2 (Homo sapiens, UniProt P32119); assay: TrxR1-Trx1-Prdx2 system biochemical assay (NADPH consumption); conditions: 100 µM compound, H2O2 50 µM, NADPH 75 µM
T1 construct: purchased Novus Biological NBP1-44456 (TrxR1), NBC1-18541 (Trx1), NBC1-25855 (Prdx2)
T1 sequence (P32119 1-198): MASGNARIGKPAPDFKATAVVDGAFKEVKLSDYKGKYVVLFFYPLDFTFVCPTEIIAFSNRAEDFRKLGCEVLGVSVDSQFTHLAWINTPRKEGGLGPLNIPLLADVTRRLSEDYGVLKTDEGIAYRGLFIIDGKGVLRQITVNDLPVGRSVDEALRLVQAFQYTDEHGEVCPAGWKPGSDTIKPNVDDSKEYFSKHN
Experimental: NADPH consumption measurements were performed according to the method described by Nelson et al.[50] in the presence of TrxR1, Trx1 and Prdx2 (Novus Biological NBP1-44456, NBC1-18541 and NBC1-25855, respectively). The incubations contained TrxR1 0.5 µM, Trx1 5 µM, Prdx2 0.5 µM, H2O2 50 µM, NADPH 75 µM in 25 mM potassium phosphate pH 7, 100 mM ammonium sulphate. The experiments were carried out in 96-wells black plates and in triplicate. Briefly, TrxR1, Trx1, and H2O2 were pre-incubated for 5 min at 25 °C for thermal equilibration. Upon addition of NADPH the initial NADPH auto-fluorescence was recorded for 2 min on a scanning microplate reader (PerkinElmer Enspire; Ex. 340 nm, Em. 482 nm) to insure that less than 10% of NADPH is oxidized in the absence of Prdx2. Ultimately Prdx2 was added to start the enzymatic reaction, which was monitored during 60 minutes. To test the effect of the compounds on NADPH consumption, KH176m and KH176 were added at 100 µM final concentration, after the addition of Prdx2. The NADPH fluorescence was followed in time. […] A parallel reaction without TrxR was performed to quantified non-specific NADPH oxidation and used for background correction.

Row | SMILES | Safety in Phase 1 ([1]; healthy adult male volunteers, NCT02544217) | Pharmacokinetic properties in Phase 1 ([1]; human, in vivo) | Effect on NADPH consumption (TrxR1, Trx1 and Prdx2)
1 | Cc1c(C)c2c(c(C)c1O)CC[C@@](C)(C(=O)N[C@@H]1CCCNC1)O2.Cl [KH176, (S)-6-hydroxy-2,5,7,8-tetramethyl-N-((R)-piperidin-3-yl)chroman-2-carboxamide hydrochloride] | acceptable safety | good pharmacokinetic properties | 
2 | CC1=C(C)C(=O)C(CC[C@](C)(O)C(=O)N[C@@H]2CCCNC2)=C(C)C1=O [KH176m] |  |  | significantly accelerate the consumption of NADPH
